Test results published in ChEMBL document CHEMBL1131389, “Unusual synthesis of new glycine antagonists via sequential aldol condensation-lactonization-elimination reaction” (Bioorg Med Chem Lett, 1998).

Target: Glutamate receptor ionotropic, NMDA 1 (Rattus norvegicus) (UniProt P35439)
Assay: In vitro affinity of compound for the glycinergic site associated with NMDA receptor was assessed by inhibition of the binding of [3H]glycine

| Compound | pKi |
| --- | --- |
| O=C(O)c1[nH]c2cc(Cl)cc(Cl)c2c1/C=C1\CCN(c2ccccc2)C1=O | 7.5 |
| O=C(O)c1[nH]c2cc(Cl)cc(Cl)c2c1/C=C1\CCCN(c2ccccc2)C1=O | 7.3 |
